From patent publication US20120283175A1, “ANTIBACTERIAL COMPOSITIONS” (Achaogen, Inc., priority 2009, published 2012)
In brackets after ≈: the same amount, converted by molar mass. Several values for one entry are separate records, joined by “and”; a condition that tells them apart may be missing. Identical values can stand only once. Like-named read-outs stand apart in the source and are kept apart here.

How the values were obtained:
gram negative bacteria = assay: Checkerboard synergy score at fractions of the antibacterial agent's MIC, with LpxCi-1, -2, -3; assay type: cell-based; design: scale not given here
Experimental: Partial or full inhibition of LpxC should compromise the outer membrane and thus allow these synergizing agents to enter the cells and exert an antibacterial effect at concentrations where cells untreated with an LpxC inhibitor are unaffected. As a first step, checkerboard synergy assays for a variety of antibacterial agents were perform with several LpxC inhibitors, on several species of gram negative bacteria.
(§1) Bacterial isolates were cultivated from −70° C. frozen stocks of the indicated strains by overnight passages at 35° C. in ambient air on Mueller-Hinton agar (Beckton Dickinson, Franklin Lakes, N.J.). Minimum Inhibitory Concentrations (MICs) were determined by the broth microdilution method in accordance with the Clinical and Laboratory Standards Institute (CLSI) guidelines. In brief, organism suspensions were adjusted to a 0.5 McFarland standard to yield a final inoculum between 3×10^5 and 7×10^5 colony-forming units (CFU)/mL. Drug dilutions and inocula were made in sterile, cation adjusted Mueller-Hinton Broth (Beckton Dickinson). An inoculum volume of 100 μL was added to wells containing 100 μL of broth with 2-fold serial dilutions of drug. All inoculated microdilution trays were incubated in ambient air at 35° C. for 18-24 hours. Following incubation, the lowest concentration of the drug that prevented visible growth (OD600 nm <0.05) was recorded as the MIC.

K. pneumo. (ATCC43816) = assay: Neutropenic thigh in vivo efficacy model (mice); design: species or system Klebsiella pneumoniae; Static Dose, LpxC cmpd / Static Dose, LpxC in combination: unit not given here; details: for Static Dose, LpxC cmpd: LpxC compound alone; for Static Dose, LpxC in combination: combination agent Vanco (440 mg/kg/day)
Source text: (§2) The model was run essentially as described by Craig and others (see Gudmundsson et al., “Murine Thigh Infection Model,” Handbook of Animal Models of Infection, M. A. Sande and O. Zak, Eds.; London: Academic Press, 1999, pp 137-144). Briefly, mice were rendered neutropenic prior to infection with 2 doses of cyclophosphamide, and then infected intramuscularly in the thigh with inocula of 10^3-10^5 CFU of either K. pneumo. (ATCC43816) or P. aeruginosa (ATCC27853). Antibiotics or vehicle alone as a negative control were administered twice at 2 hrs and 14 hrs post-infection. The animals were kept neutropenic for the duration of the experiment in order to minimize the effect of white blood cells on the infection such that the microbiological readout measures the in vivo interaction of drugs and bacteria. At 24 hrs post-infection, thighs were harvested, homogenized, and plated to measure the number of CFUs surviving per thigh. Thighs from a subset of animals were also harvested 2 hrs post-infection to record the CFUs present just prior to the first antibiotic treatment (pre-treatment).

[1] = test system: Klebsiella pneumoniae (ATCC 43816); assay type: in vivo; details: for Mean CFU/g thigh muscle (SEM): normal plates; for Mean CFU/g thigh muscle (SEM) / CFU/Drug Plate - Dilution 10^0 / CFU/Drug Plate - Dilution 10^−1: Vancomycin 25 mg/kg, LpxC-i 35 mg/kg; for CFU/Drug Plate - Dilution 10^0 / CFU/Drug Plate - Dilution 10^−1: per animal N 1-5; as to CFU/Drug Plate - Dilution 10^0: key: +: Too many colonies to permit accurate counting
Experimental: Vancomycin and LpxCi-5 were dissolved in 30% HPβCD (2-hydroxypropyl-β-cyclodextrin). Test substances were each administered subcutaneously (SC) singly or in combination to test animals at 2 hours and 14 hours after bacterial inoculation then bid daily for a total of 1, 2, 3 or 7 day(s). The dosing volume was 5 mL/kg.
Groups of 5 or 10 male specific-pathogen-free CD-1 (Crl.) mice weighing 24±2 g were used. Animals were immunosuppressed by two or three intraperitoneal injections of cyclophosphamide, the first at 150 mg/kg 4 days before infection (day −4) and the second or third at 100 mg/kg 1 day before or 3 days after infection (day −1 or +3). On day 0, animals were inoculated intramuscularly (0.1 mL/thigh) into the right thigh with a specific number (1.35×10^7 CFU/mouse) of Klebsiella pneumoniae (ATCC 43816). Vehicle and test substances (singly or in combination) were each administered subcutaneously 2 hours and 14 hours after inoculation then bid for a total of 1, 2, 3 or 7 consecutive day(s). Groups at 24, 48, 72 hours and day 8 hours after treatment as the designated time of harvest, muscle of the right thigh was harvested from each of the survival test animals. An additional group with no treatment, at 2 hours after inoculation, the muscle of the right thigh was harvested and viable CFU on agar plates with or without drug were quantified by standard methods. Animals in groups designated for Day 8 harvest are 10 mice and daily tally of survivors were kept until harvest and recorded. A non-infected group was just treated with LpxCi-5 and kept out to Day 8 and then harvested. The removed muscle tissues were then homogenized in 3˜4 mL of PBS, pH 7.4, with a ceramic mortar. Homogenates of 0.1 mL were used for serial 10-fold dilutions and plated on Muller-Hinton Broth in 1.5% Bacto agar and plated in parallel with drug plates for CFU determination. The original inoculum was adjusted to 2×10^8 CFU/0.1 mL and then plated onto the 3 different drug plates of LpxCi-5 for CFU count.
The immunity of animals treated with vehicle or vancomycin alone was suppressed by two intraperitoneal injections of cyclophosphamide, the first was at 150 mg/kg 4 days before infection (day −4) and the second was at 100 mg/kg 1 day before infection (day −1). On day 0, test compound and vehicle were each administered subcutaneously at 2 and 14 hrs after animals were inoculated intramuscularly (0.1 mL/thigh) with 1.35×10^7 CFU/mouse of Klebsiella pneumoniae (ATCC 43816).
(§3) The immunity of animals treated with LpxCi-5 alone was suppressed by two or three intraperitoneal injections of cyclophosphamide, the first was at 150 mg/kg 4 days before infection (day −4); the second and the third was at 100 mg/kg 1 day before and three days after infection (day −1 and day +3). On day 0, test compound were each administered subcutaneously bid at 2 and 14 hrs after animals were inoculated intramuscularly (0.1 mL/thigh) with 1.35×10^7 CFU/mouse of Klebsiella pneumoniae (ATCC 43816) for one, two, three or seven consecutive days. At 24, 48, 72 hours or at day 8 after treatment, muscle of the right thigh was harvested from each of the test animals for CFU determination in normal and drug plates.
as §3, with “both vancomycin and the LpxC inhibitor, LpxCi-5,” for “LpxCi-5 alone”, “compounds in combination” for “compound”, “days.” for “days. At 24, 48, 72 hours or at day 8 after treatment, muscle of the right thigh was harvested from each of the test animals for CFU determination in normal and drug plates.”

[2] = test system: P. aeruginosa (ATCC27853)
Source text: as §2
This table focuses on the sensitive part of the LpxCi-4 dose response curve (30 mg/kg) by examining the mean log CFU at 0 or 24 hours, as well as the log change in CFU at 24 hours relative to zero hours (“ΔLogCFU vs […]”). Data is given for animals treated with vehicle, LpxCi-4 at 30 mg/kg, a second agent alone at the indicated doses or the combination of LpxCi-4 at 30 mg/kg plus the second agent at the indicated dose. The standard errors for each measurement are also given (n=5 animals/group). By comparing the observed drop in CFU of the combination with the sum of the drop in CFU associated with each of the two agents given separately, one can determine whether the combination is, in fact, synergistic in vivo.

envA1 (D22) E. coli = assay: MIC by broth microdilution, isogenic envA1 mutant strain; assay type: cell-based; details: Strain envA1 (D21)
Experimental: as §1

[3] = with LpxCi-3, antibacterial agent at 1/16 MIC
[4] = with LpxCi-3, antibacterial agent at 1/64 MIC
[5] = with LpxCi-3, antibacterial agent at ¼ MIC
[6] = strain 27853, combination agent Vanco

O=C(O)c1cn(C2CC2)c2cc(N3CCNCC3)c(F)cc2c1=O [Ciprofloxacin]
Synergy Score (gram negative bacteria; [3]): 1.06 | Synergy Score (gram negative bacteria; [4]): 1.02 | Synergy Score (gram negative bacteria; [5]): 1.25

C[C@@H](O)[C@H]1C(=O)N2C(C(=O)O)=C(SCCN=CN)C[C@H]12 [Imipenem, imipenem]
Synergy Score (gram negative bacteria; with LpxCi-1, antibacterial agent at 1/16 MIC): 0.40 | Synergy Score (gram negative bacteria; with LpxCi-1, antibacterial agent at 1/64 MIC): .035 | Synergy Score (gram negative bacteria; with LpxCi-1, antibacterial agent at ¼ MIC): 0.58 | Synergy Score (gram negative bacteria; with LpxCi-2, antibacterial agent at 1/16 MIC): 1.06 | Synergy Score (gram negative bacteria; with LpxCi-2, antibacterial agent at 1/64 MIC): 1.02 | Synergy Score (gram negative bacteria; with LpxCi-2, antibacterial agent at ¼ MIC): 1.25 | Synergy Score (gram negative bacteria; [3]): 0.17 | Synergy Score (gram negative bacteria; [4]): 0.13 | Synergy Score (gram negative bacteria; [5]): 0.36

C[C@@H](O)[C@H](NC(=O)c1ccc(C#Cc2ccc(CN3CCOCC3)cc2)cc1)C(=O)NO [LpxCi-3, N-((2S,3R)-3-hydroxy-1-(hydroxyamino)-1-oxobutan-2-yl)-4-((4-(morpholinomethyl)phenyl)ethynyl)benzamide]
in vivo synergy with vancomycin (K. pneumo. (ATCC43816); bacterial strain ATCC43816): in vivo synergy | Static Dose, LpxC cmpd (K. pneumo. (ATCC43816); strain 43816): >1000 | Static Dose, LpxC in combination (K. pneumo. (ATCC43816); strain 43816): 107

CC(C)(N)[C@H](NC(=O)c1ccc(C#C/C=C/C2CC2)cc1)C(=O)NO [LpxCi-5, (S,E)-N-(3-amino-1-(hydroxyamino)-3-methyl-1-oxobutan-2-yl)-4-(4-cyclopropylbut-3-en-1-ynyl)benzamide]
Mean CFU/g thigh muscle (SEM) ([1]; 24 hr, SC bid × 1): 3.81 × 10^7 CFU/g | CFU/Drug Plate - Dilution 10^0 ([1]; 24 hr, SC bid × 1): + | CFU/Drug Plate - Dilution 10^−1 ([1]; 24 hr, SC bid × 1): 780 CFU/Drug Plate and + (4×) | Mean CFU/g thigh muscle (SEM) ([1]; 48 hr, SC bid × 2): 3.80 × 10^8 CFU/g | CFU/Drug Plate - Dilution 10^0 ([1]; 48 hr, SC bid × 2): + | CFU/Drug Plate - Dilution 10^−1 ([1]; 48 hr, SC bid × 2): + | Mean CFU/g thigh muscle (SEM) ([1]; 72 hr, SC bid × 3): 1.48 × 10^9 CFU/g | CFU/Drug Plate - Dilution 10^0 ([1]; 72 hr, SC bid × 3): + | CFU/Drug Plate - Dilution 10^−1 ([1]; 72 hr, SC bid × 3): + | Mean CFU/g thigh muscle (SEM) ([1]; Day 8, SC bid × 7): all animals died | protection of the animals ([1]; LpxCi-5 at 35 mg/kg bid (70 mg/kg/day)): provides protection to the animals out to 72 hours | resistant CFU present at 24, 48 and 72 hours ([1]; LpxCi-5 at 35 mg/kg bid alone): > 10^3 CFU/thigh | total burden of CFU by 72 hours ([1]; LpxCi-5 at 35 mg/kg bid alone): > 10^9 CFU/thigh | in vivo synergy and suppression of emergence of resistant mutants ([1]; LpxCi-5 with Vancomycin): synergistic with Vancomycin in vivo | survival to Day 8 ([1]; bid for seven consecutive days): All animals were dead by Day 8

CC(C)(O)[C@H](NC(=O)c1ccc(C#CC#CC2CC2)cc1)C(=O)NO [LpxCi-6, (S)-4-(cyclopropylbuta-1,3-diynyl)-N-(3-hydroxy-1-(hydroxyamino)-3-methyl-1-oxobutan-2-yl)benzamide]
in vivo synergy with vancomycin ([2]; bacterial strain ATCC27853): in vivo synergy | Static Dose, LpxC cmpd ([2]; strain 27853, LpxC compound alone): 269 | Fold Shift Static Dose [2, 6]: 1.8x | Static Dose, LpxC in combination [2, 6]: 151 | Static Dose, LpxC cmpd (K. pneumo. (ATCC43816); strain 43816): 240 | Fold Shift Static Dose (K. pneumo. (ATCC43816); strain 43816, combination agent Vanco): 3x | Static Dose, LpxC in combination (K. pneumo. (ATCC43816); strain 43816): 80

Cc1onc(-c2ccccc2)c1C(=O)N[C@@H]1C(=O)N2[C@@H]1SC(C)(C)[C@@H]2C(=O)O [Oxacillin, oxacillin]
MIC (envA1 (D22) E. coli): 16 µg/mL (≈ 39.9 µM) | ΔLogCFU vs 24 hr ([2]; 24 hr, second block of Table 5, mg/kg/day b.i.d.: 3936 30, Eryth. 60, Dapto. 3, Oxacil. 100): −0.35 | Log CFU Mean ([2]; 24 hr, second block of Table 5, mg/kg/day b.i.d.: 3936 30, Eryth. 60, Dapto. 3, Oxacil. 100, n=5): 7.29 | in vivo synergy with LpxC inhibitors ([2]; P. aeruginosa (ATCC27853), summary): modest but potentially useful in vivo synergy
